Reference: patent EP4592276A1, “NOVEL ACY[…] OF PSILOCIN AND RELATED 4-HYDROXYT[…] BY AN EFFICIENT […] APPROACH” (Universität Heidelberg, priority 2024, dated 2025)
Where “and” joins values, the source holds several entries; their conditions need not be identical. Equal values may be shown once. Where a name gives a salt, the structure may show the parent alone.

How the values were obtained:
[1] = system: HuH-7 cells; experiment: Cell viability in HuH-7 cells (CellTiter-Blue); format: cell-based, human; conditions: 50 µM, mean of triplicates ± standard deviation
Description: In order to assess cytotoxic effects of compounds in cell culture, HuH-7 cells were incubated in presence of these compounds in a 96-well plate for 2 h or 24 h. In order to generate a calibration curve for cell viability, a serial dilution (1:2 dilution series) of cells was seeded into control wells. Measurement of cell viability is based on the assay development using CellTiter-Blue reagent (Resazurin, blue color), which is reduced to resofurin (pink color) by viable cells.
Prior to performing the assay, a 96-well assay plate (F-bottom, transparent, Greiner) containing HuH-7 cells (20,000 cells per well) in culture medium was prepared. […] CellTiter-Blue reagent (1-2 mL) was diluted with cell culture medium (10 mL) in a Falcon tube and prewarmed to 37 °C. The 96-well plate was removed from the incubator, the medium aspirated using a vacuum pump and 100 µL of diluted CellTiter-Blue reagent was added to each well.

[2] = Drug release kinetics (prodrug cleavage) in human blood plasma; format: in vitro ADME; conditions: 37 °C; for half-life: 10 % human plasma in PBS, 50 µM; for half-life at 50 µM: 100 % human plasma
Description: Pooled human blood plasma (Biowest, France) and sterile Dulbecco's phosphate buffered saline (PBS) pH 7.3 (Sigma-Aldrich, Germany) were used for all experiments. The blood plasma was aliquoted upon receipt and stored at -20 °C. 10 % solutions were prepared by thawing a plasma aliquot at 2-8 °C, distributing it into plastic vials and diluting with the appropriate volume of sterile PBS. The 10 % and 100 % plasma aliquots were stored at -20 °C and thawed at 2-8 °C directly before the assay was performed. In a thermoblock, a plasma aliquot and 10 µl of a 5 mM prodrug solution in DMSO were prewarmed to 37 °C for 10 min in separate plastic vials. Then, 1000 µl of the prewarmed plasma sample was added to the prodrug solution, and 9×100 µl samples were withdrawn at appropriate time intervals. The enzymatic reaction was quenched by immediate mixing of the samples (100 µl) with acetonitrile (200 µl). Blank samples were prepared by mixing 10 % or 100 % plasma (100 µl) with acetonitrile (200 µl), respectively. Samples of the initial reaction mixture were prepared by adding the 5 mM prodrug solution (1 µl) to a blank sample.
Centrifugation (13,000 rpm, 3 min) of the quenched samples afforded clear supernatants which were transferred to 96 well U-bottom polypropylene plates (Greiner Bio-One, Germany). Analyte quantifications were performed on a Jasco HPLC system equipped with a UV detector and an RP-18 column (Chromolith® Performance RP-18e, 100x4.6 mm) using one of the gradients listed in Table 3. Prodrug degradation was monitored using undiluted supernatant and a 10 min chromatographic method. […] For all samples, the injection volume was 40 µL and the flow was set to 1.0 mL/min. […] Table 3: HPLC settings for quantitative analysis of plasma samples.

[3] = Prodrug stability in human whole saliva; format: in vitro ADME; conditions: mean of fresh samples of three individuals, classified into three groups; for half-life at 50 µM: 37 °C
Description: Freshly collected saliva and 5 mM stock solutions of the analytes in DMSO were prewarmed to 37 °C for 10 min. Then, 700 µl prewarmed saliva was added to 7 µl of the prodrug stock, and the mixture was incubated at 37 °C. Samples (100 µL) were taken at selected time points (0, 10, 20, 40, 60 min; 2 h or 24 h) and immediately quenched with acetonitrile (200 µl). Blank samples were prepared by mixing saliva (100 µl) with acetonitrile (200 µl). Centrifugation (3,000 rpm, 5 min) of the quenched samples afforded clear supernatants which were transferred to 96 well U-bottom polypropylene plates (Greiner Bio-One, Germany). Analyte quantifications were performed on a Jasco HPLC system equipped with a UV detector and an RP-18 column (Chromolith® Performance RP-18e, 100x4.6 mm) using the gradients listed in Table 4. Samples that gave rise to asymmetric peaks inadequate for quantification were diluted (1:1) with H2O (+0.1 % TFA). The injection volume was 40 µl and the flow was set to 1.0 mL/min. UV detection was performed at 286 nm. […] Table 4: HPLC settings for quantitative analysis of saliva samples.

[4] = Passive membrane permeation assay (PAMPA); format: in vitro ADME; conditions: pre-coated PAMPA plate, PBS pH 7.4, 200 µM, 25 °C; for R (mass retention) / Pe: 5 h; for Pe / Papp at 5 h, 200 µM: mean ± standard deviation; for Papp at 5 h, 200 µM: read-out: Pe
Description: The passive membrane permeability was evaluated with a pre-coated PAMPA plate system (BD Gentest, BD Bioscience, Germany) following the guidelines of the manufacturer and a previous literature report (cf. Kühl et al. Eur. J. Med. Chem. 2022, 240, 114585). Phosphate-buffered saline (PBS) pH 7.4 (Sigma-Aldrich, Germany) was used for all experiments. Analyte concentrations were determined on a Jasco HPLC system equipped with a UV detector and an RP-18 column (Chromolith® Performance RP-18e, 100x4.6 mm) using one of the gradients listed in Table 2. For all samples, the injection volume was 40 µl. Table 2: HPLC settings for the analysis of PAMPA samples.
Prior to performing the assay, the PAMPA plate was warmed to room temperature for 0.5 h. In the donor plate, 300 µL of the 200 µM compound solutions in PBS (4 % dimethyl sulfoxide (DMSO)) were dispensed in triplicate, and in the acceptor plate, 200 µL of PBS buffer were added to all wells. The plates were combined, and the system was incubated at 25 °C for 5 h. Upon completion of the incubation, donor and acceptor plate were separated. The wells were homogeneously mixed with a pipette, and a 100 µl sample of each donor and acceptor well was transferred to 96 well U-bottom polypropylene plates (Greiner Bio-One, Germany) for quantitative HPLC analysis.

[5] = Stability of prodrugs in methanol (1H NMR); format: physicochemical; conditions: CD3OD, ambient temperature, within 18 days
From the text: The stability of the exemplary carboxylic ester 8b in methanol was studied by dissolving a few milligrams of the fumarate ester in CD3OD at ambient temperature and measuring ^1H NMR spectra in appropriate time intervals.

[6] = Equilibrium solubility (shake-flask); conditions: 35.5 °C, pH 6.8, aqueous buffer, thermodynamic from solid
Description: For each reported solubility result, one shake-flask experiment was carried out unless otherwise stated. Measurements at pH 2.0 were performed in 0.01 M HCl. Measurements at pH 6.8 were performed in a KH2PO4/K2HPO4 buffer with an ionic strength of 70 mM. For each experiment, the solid, HPLC-purified sample (1.7 - 25 mg) was suspended in 250 - 500 µL of the aqueous buffer in a glass vial. The solution containing solid excess of the sample was then capped and shaken at 220 rpm in an Infors HT Minitron incubator at a defined temperature for 6 hours. Three aliquots (3 × 70 µL) were removed with a fine pipette from each shake-flask experiment, and the saturated solution in these aliquots was separated from precipitate by centrifugation (10000 rpm, 5 min) at the assay temperature. […] The reported values are the mean of three measured concentrations. The error was estimated based on the standard deviation of the three measurements and the uncertainty of the calibration curve. Table 8: Equilibrium solubility of selected prodrugs along with references.

Row | SMILES | Cell Viability in HuH7 at 50 µM, 2 h Incubation [1] | Cell Viability in HuH7 at 50 µM, 24 h Incubation [1] | half-life [2] | half-life at 50 µM [3] | R (mass retention) [4] | Pe [4] | Papp at 5 h, 200 µM [4] | initial amount of ester degraded [5] | half-life at 50 µM [2] | solubility thermodynamic at 6 h [6] | t1/2 at 37 °C and [prodrug]0 = 50 µM, Human Saliva [3]
1 | CCCC(=O)Oc1cccc2[nH]cc(CCN(C)CC)c12 [Compound 8b, 4-Butyryloxy-N-ethyl-N-methyltryptammonium fumarate] | 88.1 ± 6.0% | 83.7 ± 1.0% | 0.64 ± 0.04 min | 15 to 60 min | 4% | at least 8 10^-6 cm/s | 9.2 ± 0.8 ×10⁻⁶ cm/s | approximately 50% |  |  | 
2 | CCN(C)CCc1c[nH]c2cccc(OCOC(=O)C(C)(C)C)c12 [Compound 15c, 4-Pivaloyloxymethyloxy-N-ethyl-N-methyltryptammonium fumarate] | 48.3 ± 16.1% | 47.1 ± 10.4% |  | < 15 min | 2% | 9.7 ± 0.6 10^-6 cm/s |  |  | > 300 min |  | 
3 | CCN(C)CCc1c[nH]c2cccc(OC(=O)C(C)C)c12 [Compound 8d, 4-iso-Butyryloxy-N-ethyl-N-methyltryptammonium fumarate] | 91.4 ± 3.7% | 82.1 ± 2.3% | 0.44 ± 0.03 min | 15 to 60 min | 4% | at least 8 10^-6 cm/s | 9.5 ± 0.7 ×10⁻⁶ cm/s |  |  |  | 
4 | CN(C)CCc1c[nH]c2cccc(OC(=O)C3CC3)c12 [Compound 19c, 4-(cyclopropanecarbonyloxy)-N,N-dimethyltryptamine] |  |  |  |  |  |  |  |  |  | 32600 µM and 8900 µg/mL | 
5 | CCCCCC(=O)Oc1cccc2[nH]cc(CCN(C)CC)c12 [Compound 8c, 4-Hexanoyloxy-N-ethyl-N-methyltryptammonium fumarate, reference compound] | 30.2 ± 1.0% | 74.3 ± 8.0% | 0.66 ± 0.13 min | < 15 min | 7% |  | 11.8 ± 1 ×10⁻⁶ cm/s |  |  |  | 
6 | CCN(C)CCc1c[nH]c2cccc(OC(=O)C(C)(C)C)c12 [Compound 8f, 4-Pivaloyloxy-N-ethyl-N-methyltryptammonium fumarate] | 80.4 ± 2.1% | 79.4 ± 2.1% |  | > 60 min | -2% |  | 10.7 ± 0.7 ×10⁻⁶ cm/s |  | > 60 min |  | > 60 min
